These results are taken from US8334107B2, “Detection systems utilizing supported lipid bilayers” (priority 2005, dated 2012).

The subject of test [1] is supported lipid bilayer surrounding a porous bead. Briefly: Kinetics of disruption of supported lipid bilayer by α-toxin, pH-reactive fluorescein in porous beads, flow cytometry. The class given is biochemical. Conditions: pH outside 11.0, inside 2.6. An excerpt:
FIGS. 4A-B illustrates the effects of alpha-toxin on lipid bilayer integrity. FIG. 4A graphically illustrates dose-dependent release of fluorescent dye from a lipid bilayer coated microbead after introduction of different concentrations of alpha-toxin, a membrane-associated pore-forming protein from Staphylococcus aureus. The normalized fluorescence intensity (at 520 nm) of the supernatant is plotted versus time for EPC-coated, fluorescein filled porous beads when using different concentrations of α-toxin added. 10% Triton was added after 150 min. FIG. 4B illustrates the kinetics of disrupting a supported lipid bilayer by α-toxin as monitored by recording changes in fluorescence intensity every 2 minutes by flow cytometry. The lipid bilayer surrounded a porous bead that contains a pH-reactive molecule (fluorescein), and the pH outside the beads was adjusted to 11.0, whereas inside the beads the pH was 2.6. As illustrated, increasing amounts of α-toxin increases the fluorescence emitted from within the beads.
In another experiment a lipid bilayer surrounding a porous bead that contains a pH-reactive molecule (fluorescein) was exposed to α-toxin. The pH outside the beads was adjusted to 11.0, whereas inside the beads the pH was 2.6. The kinetics of disruption of supported lipid bilayer by α-toxin were monitored by recording changes in fluorescence intensity every 2 minutes by flow cytometry. For the first 8 minutes there was no significant change in fluorescence intensity (FIG. 4B). However, after 8 minutes there was a gradual increase in fluorescence intensity (FIG. 4B) resulting from insertion of α-toxin into the supported lipid bilayer thus forming channels permeable to hydrogen cations and hydroxyl ions, which reduces the difference in the pH outside and inside the microspheres. […] This can be attributed to insertion of many α-toxin channels at this high concentration leading to disruption of the lipid bilayer and immediate equilibration of the pH inside and outside the porous microspheres.
(In flow cytometry, cells or beads pass a laser one at a time.)

Test [2] relates to EPC bilayer on porous silica beads. Briefly: Suspension study: release of fluorescein dye from lipid bilayer coated porous silica beads. The class given is biochemical. To be noted: all three concentrations 15, 45 and 250 μg/mL. The method, then:
Lipid coatings on beads were disrupted using 10% Triton X-100. Each sample in micro-centrifuge tubes contained 5 mg of lipid bilayer coated, fluorescein entrapped beads in 200 μL of Tris buffer. Samples were centrifuged and 100 μL aliquots of supernatant were mixed with either 100 μL of Tris buffer or 100 μL of 10% Triton X-100® detergent in separate centrifuge tubes. The fluorescence intensity of each mixture was immediately (time=0) recorded. Each mixture was mixed with its respective bead sample in centrifuge tube and incubated at 25° C. in the dark. After 30 min, samples were centrifuged and fluorescent intensity of the supernatants was measured. Beads were resuspended in their respective supernatants. Fluorescence intensity was again measured at 90 and 150 min.
Experimental procedures were similar to the Triton X-100® detergent based analysis. For experiments with α-toxin, three different toxin concentrations: 15, 45 and 250 μg/mL were used at 37° C. and 25° C. Beads coated with EPC were used. In the experiments with melittin, 220 μM melittin was used with beads coated with either 100% EPC, 10:90 (molar ratio) mixture of DMPG and EPC or an 80:20 mixture of DMPG and DMPC. All melittin experiments were conducted at 25° C.
Previous suspension studies on disruption of lipid bilayers have been performed with small unilamellar vesicles where disruption of the lipid bilayer membranes was detected by monitoring the unquenching of a highly concentrated, encapsulated dye. In the present work disruption was monitored via release of fluorescein dye from porous beads, by measuring the increase in fluorescence intensity of the supernatant at 520 nm. Beads were first suspended in Tris buffer containing the disruptor. After selected time periods, beads were sedimented by centrifuging and a portion of the supernatant was taken for the measurement. The measured portion was added back to the bead sample to permit continuous monitoring. The scattering effect that was present in vesicle based studies was minimized by measuring only the supernatant after centrifugation of the beads.

Another test has as its system EPC vesicles. Conditions: incubation with α-toxin; cited from earlier work.
Test [3] has as its system DMPG bilayer on PPE-coated beads. The test can be described thus: Microfluidic assay: detection of lipid bilayer disruption by fluorescence superquenching. The test is classed as biochemical. To be noted: injected as 1:1 mixture with 120 μM AQS. The method, then: The preparation of microcolumns with PPE-coated, silica beads was similar to that of with fluorescein containing beads. A 10 μL aliquot of 120 μM AQS was injected to the column. After a certain period of time, a 10 μL aliquot of 1:1 mixture of 120 μM AQS and 220 μM melittin was injected. During this process, the PPE-coated silica bead segment was irradiated at 488 nm and its fluorescence emission intensity was measured at 520 nm every 10 minutes. This experiment was repeated, while injecting 220 μM melittin first, and then 120 μM AQS.
The feasibility of using superquenching as a method of detecting membrane-toxin interactions in microcolumns was also investigated. The fluorescence intensity of the cationic polyelectrolyte poly(p-phenylene-ethynylene) polymer (PPE) can be super-quenched by the quencher 9,10-anthraquinone-2,6-disulfonic acid (AQS). […] It has been observed in flow cytometric studies that formation of DMPG membranes on PPE-coated beads will quench the PPE fluorescence to some extent. The initial rise in fluorescence intensity was probably due to the unquenching of the PPE, due to the removal of lipid bilayers from PPE-coated beads through melittin interaction, whereas the decrease in fluorescence corresponded to superquenching of PPE by AQS after disruption of DMPG bilayer by melittin. […]

The test system of test [4] is DMPG lipid bilayer on MS-PPE. Briefly: Disruption of DMPG lipid bilayer on MS-PPE detected by superquenching with AQS, flow cytometry. The class given is biochemical. To be noted: 10 μM AQS; sMLT 3.8 μM, nMLT 1.6 μM. The method, then: Lipid bilayers were disrupted by adding Triton X-100® detergent to the bead suspension to a final concentration of 0.25% (w/v).
Bead suspensions of 2.5×10^5 PPE-coated microspheres in 200 μL PBS were analyzed using a FACScan flow cytometer (Becton-Dickinson, Sunnyvale, Calif.) with excitation at 488 nm. Fluorescence signals were acquired on the FL-1 channel (525 nm) using log amplification and analyzed with the CellQuest software.
(§1) Bead suspensions of 2.5×10^5 DMPG-coated MS-PPE in 200 μL of PBS were analyzed using a FACScan flow cytometer (Becton-Dickinson, Sunnyvale, Calif.) with excitation at 488 nm. Fluorescence signals were acquired on FL-1 channel (525 nm) using log amplification and analyzed with the CellQuest software. Kinetic analysis of disruption of supported lipid bilayer by melittin was performed by acquiring real-time data with continuous mixing of samples (10^6 MS-PPE in 800 μl of PBS) using a magnetic stirrer. The raw data were analyzed using IDL Query software developed by Bruce Edwards (Cancer Center, University of New Mexico, Albuquerque, N. Mex.).
Because an anionic lipid was used to form a lipid bilayer around MS-PPE, it was expected that MLT will disrupt the DMPG lipid bilayer by such a detergent-like action. This was tested by adding 10 μM AQS to DMPG-coated MS-PPE followed by treatment with one of the following: Triton X-100® detergent, synthetic MLT (sMLT), or natural MLT (nMLT) and immediately reading the fluorescence by flow cytometry. […] These histograms resemble the ones reported previously for MS-PPE, without a lipid coating, in absence and in presence of AQS.
The kinetics of disruption of supported lipid bilayer by MLT were monitored by measuring real-time changes in fluorescence intensity by flow cytometry (FIG. 19). Suspensions of 10^6 DMPG-coated MS-PPE in 800 μL of PBS were treated with AQS at a final concentration of 10 μM, then with either sMLT, Triton X-100® detergent, or no treatment. […] Treatment with sMLT in the absence of AQS led to an increase in normalized fluorescence (FIG. 19, trace A). This can be attributed to disruption of the lipid bilayer by sMLT, and is consistent with a reversal of the slight quenching of fluorescence caused by the formation of a DMPG lipid bilayer over MS-PPE. Addition of AQS alone to DMPG-coated MS-PPE (FIG. 19, trace C) led to a 20% reduction in fluorescence as reported earlier. Addition of Triton X-100® detergent to DMPG-coated MS-PPE after the addition of AQS (first dip in trace E, FIG. 19) caused immediate decrease in fluorescence to ˜10% of its original value (second dip in trace E, FIG. 19). In contrast, addition of sMLT, after the addition of AQS, (FIG. 19, trace D) led to a gradual reduction of fluorescence intensity to ˜20% of the original value. Although MLT forms dimers at high concentrations (Dempsey, C. E. Biochim. Biophys. Acta 1990, 1031, 143-161), it is monomeric at the concentrations used in this study. On the other hand, Triton X-100® detergent forms micelles at the concentration used in this study.

The subject of a further test is DMPG supported on MS-PPE. Briefly: Binding curves of MLT to DMPG supported on MS-PPE (superquenching flow cytometric assay). Conditions: flow cytometry, 10 μM AQS. The procedure: FIGS. 18A-B show binding curves for MLT-disruption of supported lipid bilayer by natural MLT (nMLT; FIG. 18A), and synthetic MLT (sMLT; FIG. 18B). Fluorescence intensity was normalized to that without MLT as determined by flow cytometry. The error bars represent the standard deviation (SD) of the means of normalized histograms obtained for 3 replicates.
as §1
From FIG. 18, the association constant (corresponding to the reciprocal of the point of half saturation) for nMLT and sMLT with DMPG were 5×10^6 M^−1 and 1.7×10^6 M^−1, respectively. […] Lower concentrations of nMLT, in comparison to sMLT, were required to disrupt the DMPG lipid bilayer. This might be attributed to the fact that nMLT contains some phospholipase A2 (PLA2) as a contaminant. […]

For the substance “α-toxin: membrane active pore-forming protein secreted by Staphylococcus aureus, ~33 kDa”, the “change in fluorescence intensity” value in test [1] (45 μg/mL) is given as “did not cause a change in fluorescence intensity different from the baseline”. For the same substance, the “concentration at which the increase in fluorescence intensity reached its maximum” value in test [1] came to 15 µg/mL. Moreover, the “time without significant change in fluorescence intensity before gradual increase” value in test [1] (read every 2 minutes) amounted to 8 min. The “increase in fluorescence intensity after 150 min” value is recorded as “about 3 fold” in test [2] (25° C.) and “about 6.5 fold” in test [2] (37° C.). In the test with EPC vesicles, the “dye encapsulated in EPC vesicles released” value was 27%.

In the case of “nMLT: natural melittin from Sigma, contains some phospholipase A2 as a contaminant”, the “change in fluorescence intensity of bead segment” value in test [3] is “slight rise in fluorescence intensity followed by a significant decrease”. Also, the “quenching of the MS-PPE after treatment” value in test [4] is “comparable to that occurring on addition of Triton X-100”. Moreover, the “association constant (reciprocal of the point of half saturation) with DMPG” value with DMPG supported on MS-PPE was 5e+06 M⁻¹.
